These are literature values, as cited in US8057823B2, “Lipid nanocapsules, preparation process and use as medicine” (Universite d'Angers, priority 2000, dated 2011).

As to `CC(=O)[C@H]1CC[C@H]2[C@@H]3CCC4=CC(=O)CC[C@]4(C)[C@H]3CC[C@]12C` [progesterone], the solubility in water entry was “virtually insoluble”. With `CS(=O)(=O)OCCCCOS(C)(=O)=O` [busulfan], the solubility in water entry is reported as “virtually insoluble”.
